Data: US20170291905A1, “ARGININE […] INHIBITORS AND USES THEREOF” (Epizyme, Inc., priority 2014, published 2017)
Counter-ions that a name gives are not always drawn.

Target: T1, PRMT1 (Homo sapiens, UniProt Q99873)
T1 construct: host or cells: RKO cells
Test: RKO methylation assay, In Cell Western (ICW) for mono-methyl arginine and DNA content
Assay type: cell-based
Conditions: RKO cells, 72 hours, mono-methyl arginine signal normalised to DRAQ5, percent activation
Description: RKO Methylation Assay RKO adherent cells were purchased from ATCC (American Type Culture Collection), Manassas, Va., USA. DMEM/Glutamax medium, penicillin-streptomycin, heat inactivated fetal bovine serum, 0.05% trypsin and D-PBS were purchased from Life Technologies, Grand Island, N.Y., USA. Odyssey blocking buffer, 800CW goat anti-rabbit IgG (H+L) antibody, and Licor Odyssey infrared scanner were purchased from Licor Biosciences, Lincoln, Nebr., USA. Mono-methyl arginine antibody was purchased from Cell Signaling Technology, Danvers, Mass., USA. Methanol was purchased from VWR, Franklin, Mass., USA. 10% Tween 20 was purchased from KPL, Inc., Gaithersburg, Md., USA. DRAQ5 was purchased from Biostatus Limited, Leicestershire, UK. RKO adherent cells were maintained in growth medium (DMEM/Glutamax medium supplemented with 10% v/v heat inactivated fetal bovine serum and 100 units/mL penicillin-streptomycin) and cultured at 37° C. under 5% CO2. Cell Treatment, in Cell Western (ICW) for Detection of Mono-Methyl Arginine and DNA Content. RKO cells were seeded in assay medium at a concentration of 20,000 cells per mL to a poly-D-lysine coated 384 well culture plate (BD Biosciences 356697) with 50 μL per well. Compound (100 nL) from a 96-well source plate was added directly to 384 well cell plate. Plates were incubated at 37° C., 5% CO2 for 72 hours. After three days of incubation, plates were brought to room temperature outside of the incubator for ten minutes and blotted on paper towels to remove cell media. 50 μL of ice cold 100% methanol was added directly to each well and incubated for 30 min at room temperature. After 30 min, plates were transferred to a Biotek EL406 plate washer and washed 2 times with 100 μL per well of wash buffer (1×PBS). Next 60 μL per well of Odyssey blocking buffer (Odyssey Buffer with 0.1% Tween 20 (v/v)) were added to each plate and incubated 1 hour at room temperature. Blocking buffer was removed and 20 μL per well of primary antibody was added (mono-methyl arginine diluted 1:200 in Odyssey buffer with 0.1% Tween 20 (v/v)) and plates were incubated overnight (16 hours) at 4° C. Plates were washed 5 times with 100 μL per well of wash buffer. Next 20 μL per well of secondary antibody was added (1:200 800CW goat anti-rabbit IgG (H+L) antibody, 1:1000 DRAQ5 (Biostatus limited) in Odyssey buffer with 0.1% Tween 20 (v/v)) and incubated for 1 hour at room temperature. The plates were washed 5 times with 100 μL per well wash buffer then 2 times with 100 μL per well of water. Plates were allowed to dry at room temperature then imaged on the Licor Odyssey machine which measures integrated intensity at 700 nm and 800 nm wavelengths. Both 700 and 800 channels were scanned. […] Each plate included fourteen control wells of DMSO only treatment (minimum activation) as well as fourteen control wells for maximum activation treated with 20 μM of a reference compound. The average of the ratio values for each control type was calculated and used to determine the percent activation for each test well in the plate. Reference compound was serially diluted three-fold in DMSO for a total of nine test concentrations, beginning at 20 μM. Percent activation was determined and EC30 curves were generated using triplicate wells per concentration of compound.

T1 sequence (Q99873 whole entry): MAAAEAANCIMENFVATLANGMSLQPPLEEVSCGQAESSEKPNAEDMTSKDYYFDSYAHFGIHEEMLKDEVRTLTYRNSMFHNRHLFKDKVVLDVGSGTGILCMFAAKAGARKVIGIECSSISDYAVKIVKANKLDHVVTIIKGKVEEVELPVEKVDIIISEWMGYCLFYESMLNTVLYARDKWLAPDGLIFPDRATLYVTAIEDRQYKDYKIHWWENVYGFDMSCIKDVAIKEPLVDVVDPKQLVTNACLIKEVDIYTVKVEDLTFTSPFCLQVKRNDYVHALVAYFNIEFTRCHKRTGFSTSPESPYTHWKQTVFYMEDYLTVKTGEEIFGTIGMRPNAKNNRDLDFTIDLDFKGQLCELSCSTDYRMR

SMILES	PRMT1 RGG ICW EC30 [nM]
CNCCN(C)Cc1c[nH]nc1C1CCC(OCCCOC)C2(CCCC2)C1 (mixture of isomers) [compound 19, N1-((3-(10-(3-methoxypropoxy)spiro[4.5]decan-7-yl)-1H-pyrazol-4-yl)methyl)-N1,N2-dimethylethane-1,2-diamine dihydrochloride]	440.3
CNCCN(C)Cc1c[nH]nc1[C@@H]1CC[C@@H](OCCCOC)C2(CCCC2)C1 (racemic) [compound 26, N1-((3-((7R,10R)-10-(3-methoxypropoxy)spiro[4.5]decan-7-yl)-1H-pyrazol-4-yl)methyl)-N1,N2-dimethylethane-1,2-diamine]	217.2
CNCCN(C)Cc1c[nH]nc1[C@@H]1CC[C@H](OCCCOC)C2(CCCC2)C1 (racemic) [compound 27, N1-((3-((7R,10S)-10-(3-methoxypropoxy)spiro[4.5]decan-7-yl)-1H-pyrazol-4-yl)methyl)-N1,N2-dimethylethane-1,2-diamine]	216.4
CNCCN(C)Cc1c[nH]nc1C1CC(COCC2CC2)CC(COCC2CC2)C1 (stereo not drawn) [compound 2]	>5000
CNCCN(C)Cc1c[nH]nc1[C@H]1CC[C@@]2(CCCCO2)CC1 [compound 3]	114.7
CNCCN(C)Cc1c[nH]nc1[C@H]1CC[C@]2(CCCOC2)CC1 [compound 4, N1-((3-((6s,9s)-2-oxaspiro[5.5]undecan-9-yl)-1H-pyrazol-4-yl)methyl)-N1,N2-dimethylethane-1,2-diamine]	18.34
CNCCN(C)Cc1c[nH]nc1[C@H]1CC[C@@]2(CCCOC2)CC1 [compound 5, N1-((3-((6r,9r)-2-oxaspiro[5.5]undecan-9-yl)-1H-pyrazol-4-yl)methyl)-N1,N2-dimethylethane-1,2-diamine]	14.65
CNCCN(C)Cc1c[nH]nc1C1CCC(COCC(C)C)(COCC(C)C)CC1 [compound 6]	949.3
CNCCN(C)Cc1c[nH]nc1C1CCC2(CCC(OC)CC2)CC1 (stereo not drawn) [compound 9, N1-((3-(9-methoxyspiro[5.5]undecan-3-yl)-1H-pyrazol-4-yl)methyl)-N1,N2-dimethylethane-1,2-diamine]	12.45
CNCCN(C)Cc1c[nH]nc1[C@H]1CC[C@]2(CCN(CCC(C)C)C2=O)CC1 [compound 10]	2001
CNCCN(C)Cc1c[nH]nc1[C@H]1CC[C@@]2(CCN(CCC(C)C)C2=O)CC1 [compound 11, (5r,8r)-2-isopentyl-8-(4-((methyl(2-(methylamino)ethyl)amino)methyl)-1H-pyrazol-3-yl)-2-azaspiro[4.5]decan-1-one]	34.17
CNCCN(C)Cc1c[nH]nc1C1C[C@@H](C(=O)N(C)CC(C)C)C(C)(C)[C@H](C(=O)N(C)CC(C)C)C1 (stereo partly drawn) [compound 12]	>5000
CNCCN(C)Cc1c[nH]nc1C1C[C@H](C(=O)NCCOC)C(C)(C)[C@H](C(=O)NCCOC)C1 (stereo partly drawn) [compound 13]	>5000
CCN(C)C(=O)C1CC(c2n[nH]cc2CN(C)CCNC)CC(C(=O)NCCC(C)C)C1(C)C (stereo not drawn) [compound 14, N1-ethyl-N3-isopentyl-N1,2,2-trimethyl-5-(4-((methyl(2-(methylamino)ethyl)amino)methyl)-1H-pyrazol-3-yl)cyclohexane-1,3-dicarboxamide]	>5000
CNCCN(C)Cc1c[nH]nc1C1=CCC(CF)(CF)CC1 [compound 15, N-((3-(4,4-bis(fluoromethyl)cyclohex-1-en-1-yl)-1H-pyrazol-4-yl)methyl)-N1,N2-dimethylethane-1,2-diamine]	361.1
CNCCN(C)Cc1c[nH]nc1C1=CCC(COCC(F)(F)F)CC1 (stereo not drawn) [compound 16, N1,N2-dimethyl-N1-((3-(4-((2,2,2-trifluoroethoxy)methyl)cyclohex-1-en-1-yl)-1H-pyrazol-4-yl)methyl)ethane-1,2-diamine]	839.3
CNCCN(C)Cc1c[nH]nc1C1CCC(C)(C)[C@H](OCC(C)C)C1 (stereo partly drawn) [compound 20, ({3-[(3R)-4,4-dimethyl-3-(2-methylpropoxy)cyclohexyl]-1H-pyrazol-4-yl}methyl)(methyl)[2-(methylamino)ethyl]amine]	204.3
CCC1CC(c2n[nH]cc2CN(C)CCNC)CC(C(=O)NCCOC)C1(C)C (stereo not drawn) [compound 21, 3-ethyl-N-(2-methoxyethyl)-2,2-dimethyl-5-[4-([methyl[2-(methylamino)ethyl]amino]methyl)-1H-pyrazol-3-yl]cyclohexane-1-carboxamide dihydrochloride]	>5000
CCC1(CC)CC2(CCC(c3n[nH]cc3CN(C)CCNC)CC2)N(C)C1=O (stereo not drawn) [compound 22, 3,3-diethyl-1-methyl-8-(4-((methyl(2-(methylamino)ethyl)amino)methyl)-1H-pyrazol-3-yl)-1-azaspiro[4.5]decan-2-one]	1835
CNCCN(C)Cc1c[nH]nc1[C@H]1CC[C@@H](COCC(F)(F)F)CC1 [compound 23, N1,N2-dimethyl-N1-((3-((1s,4s)-4-((2,2,2-trifluoroethoxy)methyl)cyclohexyl)-1H-pyrazol-4-yl)methyl)ethane-1,2-diamine]	1721
CNCCN(C)Cc1c[nH]nc1[C@H]1CC[C@H](COCC(F)(F)F)CC1 [compound 24, N1,N2-dimethyl-N1-((3-((1r,4r)-4-((2,2,2-trifluoroethoxy)methyl)cyclohexyl)-1H-pyrazol-4-yl)methyl)ethane-1,2-diamine]	161.6
CNCCN(C)Cc1cn(C)nc1C1CCC(C)(C)[C@@H](C(=O)NCC(C)C)C1 (stereo partly drawn) [compound 25]	>5000
CNCCN(C)Cc1c[nH]nc1C1CCC(C)(C)[C@H](COCCCOC)C1 (stereo partly drawn) [compound 30, {2-[({3-[(3R)-3-[(3-methoxypropoxy)methyl]-4,4-dimethylcyclohexyl]-1H-pyrazol-4-yl}methyl)(methyl)amino]ethyl}(methyl)amine]	209
CCOC[C@@H]1CC(c2n[nH]cc2CN(C)CCNC)CCC1(C)C (stereo partly drawn) [compound 31, {2-[({3-[(3R)-3-(ethoxymethyl)-4,4-dimethylcyclohexyl]-1H-pyrazol-4-yl}methyl)(methyl)amino]ethyl}(methyl)amine]	453.6
CNCCN(C)Cc1c[nH]nc1C1CCC(C)(C)[C@H](CO)C1 (stereo partly drawn) [compound 32, [(1R)-2,2-dimethyl-5-[4-({methyl[2-(methylamino)ethyl]amino}methyl)-1H-pyrazol-3-yl]cyclohexyl]methanol]	517.9
CCC1(CC)C[C@]2(CC[C@H](c3n[nH]cc3CN(C)CCNC)CC2)OC1=O [compound 33, (5s,8s)-3,3-diethyl-8-(4-((methyl(2-(methylamino)ethyl)amino)methyl)-1H-pyrazol-3-yl)-1-oxaspiro[4.5]decan-2-one]	40.81
CCC1(CC)C[C@]2(CC[C@@H](c3n[nH]cc3CN(C)CCNC)CC2)OC1=O [compound 34, (5r,8r)-3,3-diethyl-8-(4-((methyl(2-(methylamino)ethyl)amino)methyl)-1H-pyrazol-3-yl)-1-oxaspiro[4.5]decan-2-one]	65.46
CNCCN(C)Cc1c[nH]nc1C1CCC(C)(C)[C@H](COCCOC)C1 (stereo partly drawn) [compound 35, {2-[({3-[(3R)-3-[(2-methoxyethoxy)methyl]-4,4-dimethylcyclohexyl]-1H-pyrazol-4-yl}methyl)(methyl)amino]ethyl}(methyl)amine]	330.1
CCCOCC1(COCCC)CCC(c2n[nH]cc2CN(C)CCNC)CC1 [compound 36, N^1-((3-(4,4-bis(propoxymethyl)cyclohexyl)-1H-pyrazol-4-yl)methyl)-N^1,N^2-dimethylethane-1,2-diamine]	66.17
CC[C@]12CC[C@](CC)(C[C@H](c3n[nH]cc3CN(C)CCNC)C1)O2 [compound 37, N1-((3-((1R,3r,5S)-1,5-diethyl-8-oxabicyclo[3.2.1]octan-3-yl)-1H-pyrazol-4-yl)methyl)-N1,N2-dimethylethane-1,2-diamine]	245.5
